Molecules are shown by their SMILES. Some results are limits rather than exact numbers.

For the test, the system named is HBV. As to the kind of experiment: Anti-HBV activity in vitro: quantification of extracellular HBV DNA by direct qPCR in HepAD38 cells. The note with it: Hepatitis B virus, doxycycline-free medium, 96 hours at 37°C, 8-point dose-response curve, read-out: HBV inh EC50. The format is cell-based. The text has this: HepAD38 cell line (Ladner et al., Antimicrob Agents Chemother, 1997, 41, 1715-20) was used for HBV inhibition assays. HepAD38 is a subclone, derived from hepatoblastoma cell line HepG2 (ATCC® Number: HB-8065™), that expresses HBV genome under the transcriptional control of a tetracycline-responsive promoter in a TET-OFF system: addition of doxycycline, an antibiotic belonging to the class of tetracycline, suppresses HBV replication, while its removal switches on the process allowing HBV viral particles release in the cell supernatant. HepAD38 cell line is maintained in DMEM/F12, supplemented with 10% of fetal bovine serum, 1% of glutamine, 1% of penicillin/streptomycin, 0.4 mg/ml G418 and 0,3 ug/ml tetracycline. For the HBV inhibition assay, doxycycline-free medium is used in order to allow virion production.
HBV inhibition activity in vitro was performed in 96 multiwell plates. During the initial (primary) screening, compounds were first tested in triplicates at concentrations of 0.02 µM, 0.1µM, 0.5µM and 1µM. For selected compounds, an 8-point dose-response curve was obtained using 1:2 serial dilutions (starting from 0.01µM, 0.1µM, 0.4µM or 5 µM, depending on the degree of inhibition observed during the primary screening). From the dose-response curves, half maximal effective concentration (EC50) could be calculated (see also below).
In more detail, compounds - typically dissolved in DMSO stock solutions - were diluted to 2x the final desired concentration in 100 µl of the above medium (without doxycycline) and plated in three replicates in the 96-well plates.
Simultaneously, HepAD38 cells - extensively pre-washed in doxycycline-free medium in order to induce HBV production - were suspended at 2^∗10^4 cells in 100 µl of doxycycline-free medium and added to each well of the plate, to yield a final assay volume of 200 µl DMSO - used for stock solutions and compounds dilutions - which was always present in the assays at a final concentration of 0.5%.
Plates were then incubated 96 hours at 37°C and then subjected to cell viability assays and extracellular HBV quantification, in order to evaluate both the cytotoxic potential and the antiviral activity of compounds. Cytotoxicity was assessed by a commercial fluorescence assay that measures the metabolic activity of cells, directly related to cell viability (Cell Titer Blue, Promega). Anti-HBV activity was evaluated by quantification of extracellular HBV DNA with direct qPCR. In particular, supernatant was collected and centrifuged for cell debris clarification, viral DNA was extracted from virions by addition of lysis buffer (1 mM 1,4-dithiothreitol, 0.2% sodium dodecyl sulphate) and incubated at 95°C for 10 min. Samples were then diluted 1:40 and real time PCR amplification was performed with SYBR green assay (Power SYBR™ Green PCR Master Mix-Thermo Fisher Scientific) and specific HBV primer (HBV-DF:5'-[…]-3' (SEQ ID No. 1), HBV-DR:5'-[…]-3' (SEQ ID No. 2)).
Antiviral activity data for each compound are reported as EC50 value (see Table 1 legend). Excel and Graphpad Prism programs are typically used for data elaboration and EC50 calculation.
Turning to `Cn1cc2c(c1C(=O)Nc1ccc(F)c(Cl)c1)OC[C@]1(CCN(C(=O)C(=O)NC(C)(C)C(F)(F)F)C1)NS2(=O)=O` [Example E21, (R)-N-(3-chloro-4-fluorophenyl)-7'-methyl-1-(2-oxo-2-((1,1,1-trifluoro-2-methylpropan-2-yl)amino)acetyl)-2'H,4'H,7'H-spiro[pyrrolidine-3,3'-pyrrolo[3,4-b][1,4,5]oxathiazepine]-6'-carboxamide 1',1'-dioxide], the EC50 is under 500 nM. In the case of `Cn1cc2c(c1C(=O)Nc1ccc(F)c(Cl)c1)OCC1(CCN(C(=O)C(=O)NCC(F)(F)F)CC1)NS2(=O)=O` [Example E13, N-(3-chloro-4-fluorophenyl)-7'-methyl-1-(2-oxo-2-((2,2,2-trifluoroethyl)amino)acetyl)-2'H,4'H,7'H-spiro[piperidine-4,3'-pyrrolo[3,4-b][1,4,5]oxathiazepine]-6'-carboxamide 1',1'-dioxide], the EC50 was under 500 nM. As to `C[C@@H](NC(=O)C(=O)N1CC2(COc3c(cn(C)c3C(=O)Nc3ccc(F)c(Cl)c3)S(=O)(=O)N2)C1)C(F)(F)F` [Example E9, (R)-N-(3-chloro-4-fluorophenyl)-7'-methyl-1-(2-oxo-2-((1,1,1-trifluoropropan-2-yl)amino)acetyl)-2'H,4'H,7'H-spiro[azetidine-3,3'-pyrrolo[3,4-b][1,4,5]oxathiazepine]-6'-carboxamide 1',1'-dioxide], the EC50 is under 500 nM.

With `C[C@H](NC(=O)C(=O)N1CC[C@]2(COc3c(cn(C)c3C(=O)Nc3ccc(F)c(C(F)F)c3)S(=O)(=O)N2)C1)C(F)(F)F` [Example E23, (R)-N-(3-(difluoromethyl)-4-fluorophenyl)-7'-methyl-1-(2-oxo-2-(((S)-1,1,1-trifluoropropan-2-yl)amino)acetyl)-2'H,4'H,7'H-spiro[pyrrolidine-3,3'-pyrrolo[3,4-b][1,4,5]oxathiazepine]-6'-carboxamide 1',1'-dioxide], the EC50 is under 500 nM. As for `C[C@@H](NC(=O)C(=O)N1CC[C@]2(COc3c(cn(C)c3C(=O)Nc3ccc(F)c(C(F)F)c3)S(=O)(=O)N2)C1)C(F)(F)F` [Example E6, (R)-N-(3-(difluoromethyl)-4-fluorophenyl)-7'-methyl-1-(2-oxo-2-(((R)-1,1,1-trifluoropropan-2-yl)amino)acetyl)-2'H,4'H,7'H-spiro[pyrrolidine-3,3'-pyrrolo[3,4-b][1,4,5]oxathiazepine]-6'-carboxamide 1',1'-dioxide], the EC50 was under 500 nM. Regarding `Cn1cc2c(c1C(=O)Nc1ccc(F)c(Cl)c1)OCC1(CN(C(=O)C(=O)N3CC(F)(F)C3)C1)NS2(=O)=O` [Example E17, N-(3-chloro-4-fluorophenyl)-1-(2-(3,3-difluoroazetidin-1-yl)-2-oxoacetyl)-7'-methyl-2'H,4'H,7'H-spiro[azetidine-3,3'-pyrrolo[3,4-b][1,4,5]oxathiazepine]-6'-carboxamide 1',1'-dioxide], the EC50 is under 500 nM. On to `Cn1cc2c(c1C(=O)Nc1ccc(F)c(C(F)F)c1)OC[C@@]1(CCN(C(=O)C(=O)NCC(F)(F)F)C1)NS2(=O)=O` [Example E27, (S)-N-(3-(difluoromethyl)-4-fluorophenyl)-7'-methyl-1-(2-oxo-2-((2,2,2-trifluoroethyl)amino)acetyl)-2'H,4'H,7'H-spiro[pyrrolidine-3,3'-pyrrolo[3,4-b][1,4,5]oxathiazepine]-6'-carboxamide 1',1'-dioxide], for which the EC50 was under 500 nM. As to `Cn1cc2c(c1C(=O)Nc1ccc(F)c(C(F)F)c1)OCC1(CCN(C(=O)C(=O)NC(C)(C)C(F)(F)F)CC1)NS2(=O)=O` [Example E15, N-(3-(difluoromethyl)-4-fluorophenyl)-7'-methyl-1-(2-oxo-2-((1,1,1-trifluoro-2-methylpropan-2-yl)amino)acetyl)-2'H,4'H,7'H-spiro[piperidine-4,3'-pyrrolo[3,4-b][1,4,5]oxathiazepine]-6'-carboxamide 1',1'-dioxide], the EC50 is under 500 nM. In the case of `C[C@H](NC(=O)C(=O)N1CC[C@]2(COc3c(cn(C)c3C(=O)Nc3ccc(F)c(Cl)c3)S(=O)(=O)N2)C1)C(F)(F)F` [Example E22, (R)-N-(3-chloro-4-fluorophenyl)-7'-methyl-1-(2-oxo-2-(((S)-1,1,1-trifluoropropan-2-yl)amino)acetyl)-2'H,4'H,7'H-spiro[pyrrolidine-3,3'-pyrrolo[3,4-b][1,4,5]oxathiazepine]-6'-carboxamide 1',1'-dioxide], the EC50 is under 500 nM. For the compound `C[C@@H](NC(=O)C(=O)N1CCC2(CC1)COc1c(cn(C)c1C(=O)Nc1ccc(F)c(Cl)c1)S(=O)(=O)N2)C(F)(F)F` [Example E7, (R)-N-(3-chloro-4-fluorophenyl)-7'-methyl-1-(2-oxo-2-((1,1,1-trifluoropropan-2-yl)amino)acetyl)-2'H,4'H,7'H-spiro[piperidine-4,3'-pyrrolo[3,4-b][1,4,5]oxathiazepine]-6'-carboxamide 1',1'-dioxide], the EC50 was under 500 nM.

On to `C[C@H](NC(=O)C(=O)N1CC2(COc3c(cn(C)c3C(=O)Nc3ccc(F)c(C(F)F)c3)S(=O)(=O)N2)C1)C(F)(F)F` [Example E18, (S)-N-(3-(difluoromethyl)-4-fluorophenyl)-7'-methyl-1-(2-oxo-2-((1,1,1-trifluoropropan-2-yl)amino)acetyl)-2'H,4'H,7'H-spiro[azetidine-3,3'-pyrrolo[3,4-b][1,4,5]oxathiazepine]-6'-carboxamide 1',1'-dioxide], for which the EC50 is under 500 nM. For `C[C@@H](NC(=O)C(=O)N1CC2(COc3c(c(Cl)n(C)c3C(=O)Nc3ccc(F)c(C(F)F)c3)S(=O)(=O)N2)C1)C(F)(F)F` [Example E32, (R)-8'-chloro-N-(3-(difluoromethyl)-4-fluorophenyl)-7'-methyl-1-(2-oxo-2-((1,1,1-trifluoropropan-2-yl)amino)acetyl)-2'H,4'H,7'H-spiro[azetidine-3,3'-pyrrolo[3,4-b][1,4,5]oxathiazepine]-6'-carboxamide 1',1'-dioxide], the EC50 is under 500 nM. Next, `Cn1cc2c(c1C(=O)Nc1ccc(F)c(C(F)F)c1)OC[C@]1(CCN(C(=O)C(=O)NC(C)(C)C(F)(F)F)C1)NS2(=O)=O` [Example E24, (R)-N-(3-(difluoromethyl)-4-fluorophenyl)-7'-methyl-1-(2-oxo-2-((1,1,1-trifluoro-2-methylpropan-2-yl)amino)acetyl)-2'H,4'H,7'H-spiro[pyrrolidine-3,3'-pyrrolo[3,4-b][1,4,5]oxathiazepine]-6'-carboxamide 1',1'-dioxide]: under 500 nM; `Cn1cc2c(c1C(=O)Nc1ccc(F)c(C(F)F)c1)OCC1(CN(C(=O)C(=O)NC3CC3)C1)NS2(=O)=O` [Example E19, 1-(2-(cyclopropylamino)-2-oxoacetyl)-N-(3-(difluoromethyl)-4-fluorophenyl)-7'-methyl-2'H,4'H,7'H-spiro[azetidine-3,3'-pyrrolo[3,4-b][1,4,5]oxathiazepine]-6'-carboxamide 1',1'-dioxide]: under 500 nM; `C[C@@H](NC(=O)C(=O)N1CC[C@]2(COc3c(c(Cl)n(C)c3C(=O)Nc3ccc(F)c(C(F)F)c3)S(=O)(=O)N2)C1)C(F)(F)F` [Example E34, (R)-8'-chloro-N-(3-(difluoromethyl)-4-fluorophenyl)-7'-methyl-1-(2-oxo-2-(((R)-1,1,1-trifluoropropan-2-yl)amino)acetyl)-2'H,4'H,7'H-spiro[pyrrolidine-3,3'-pyrrolo[3,4-b][1,4,5]oxathiazepine]-6'-carboxamide 1',1'-dioxide]: under 500 nM. Regarding `C[C@@H](NC(=O)C(=O)N1CC[C@]2(COc3c(cn(C)c3C(=O)Nc3ccc(F)c(Cl)c3)S(=O)(=O)N2)C1)C(F)(F)F` [Example E4, (R)-N-(3-chloro-4-fluorophenyl)-7'-methyl-1-(2-oxo-2-(((R)-1,1,1-trifluoropropan-2-yl)amino)acetyl)-2'H,4'H,7'H-spiro[pyrrolidine-3,3'-pyrrolo[3,4-b][1,4,5]oxathiazepine]-6'-carboxamide 1',1'-dioxide], the EC50 was under 500 nM.

The values above are taken from EP3985010A1, “SPIROCYCLIC INHIBITORS OF HEPATITIS B VIRUS” (priority 2020, dated 2022).
